Assays:
Type in all cases: in vivo
[1] = system: Spodoptera littoralis; assay: Spodoptera littoralis (Egyptian cotton leaf worm), sprayed cotton leaf discs; conditions: foliar, 72 h, application rate 200 ppm, L1 larvae on cotton leaf discs, 3 days after infestation, read-out: control (at least one of mortality, anti-feedant effect, growth inhibition)
Experimental: Cotton leaf discs were placed on agar in 24-well microtiter plates and sprayed with aqueous test solutions prepared from 10′000 ppm DMSO stock solutions. After drying the leaf discs were infested with five L1 larvae. The samples were assessed for mortality, anti-feedant effect, and growth inhibition 3 days after infestation. Control of Spodoptera littoralis by a test sample is noted when at least one of mortality, anti-feedant effect, and growth inhibition is better than the untreated sample.

[2] = system: Heliothis virescens; assay: Heliothis virescens (tobacco budworm), eggs on artificial diet; conditions: application rate 200 ppm, eggs 0-24 h old on artificial diet, 5 days after infestation, read-out: control (at least one of egg mortality, larval mortality, growth inhibition)
Experimental: Eggs (0-24 h old) were placed in 24-well microtiter plates on artificial diet and treated with aqueous test solutions prepared from 10′000 ppm DMSO stock solutions by pipetting. The samples were assessed for egg mortality, larval mortality and growth inhibition 5 days after infestation. Control of Heliothis virescens by a test sample is noted when at least one of egg mortality, larval mortality and growth inhibition is better than the untreated sample.

[3] = system: Plutella xylostella; assay: Plutella xylostella (diamond back moth), artificial diet; conditions: 120 h, application rate 200 ppm, L2 larvae on artificial diet, 5 days after infestation, read-out: control (at least one of mortality, growth inhibition)
Experimental: 24-well microtiter plates with artificial diet were treated with aqueous test solutions prepared from 10′000 ppm DMSO stock solutions by pipetting. After drying, the plates were infested with L2 larvae (10 to 15 per well). The samples were assessed for mortality and growth inhibition 5 days after infestation. Control of Plutella xyllostella by a test sample is noted when at least one of mortality and growth inhibition is better than the untreated sample.

[4] = system: Diabrotica balteata; assay: Diabrotica balteata (corn root worm), artificial diet; conditions: 120 h, application rate 200 ppm, L2 larvae on artificial diet, 5 days after infestation, read-out: control (at least one of mortality, growth inhibition)
Experimental: 24-well microtiter plates with artificial diet were treated with aqueous test solutions prepared from 10′000 ppm DMSO stock solutions by pipetting. After drying, the plates were infested with L2 larvae (6 to 10 per well). The samples were assessed for mortality and growth inhibition 5 days after infestation. Control of Diabrotica balteata by a test sample is noted when at least one of mortality and growth inhibition is better than the untreated sample.

[5] = system: Thrips tabaci; assay: Thrips tabaci (onion thrips), sprayed sunflower leaf discs; conditions: foliar, 144 h, application rate 200 ppm, mixed ages on sunflower leaf discs, 6 days after infestation, read-out: control (mortality)
Experimental: Sunflower leaf discs were placed on agar in 24-well microtiter plates and sprayed with aqueous test solutions prepared from 10′000 ppm DMSO stock solutions. After drying the leaf discs were infested with a thrips population of mixed ages. The samples were assessed for mortality 6 days after infestation.

[6] = system: Tetranychus urticae; assay: Tetranychus urticae (two-spotted spider mite), sprayed bean leaf discs; conditions: foliar, 192 h, application rate 200 ppm, mixed ages on bean leaf discs, 8 days after infestation, read-out: control (mortality, mobile stages)
Experimental: Bean leaf discs on agar in 24-well microtiter plates were sprayed with aqueous test solutions prepared from 10′000 ppm DMSO stock solutions. After drying the leaf discs were infested with a mite population of mixed ages. The samples were assessed for mortality (mobile stages) 8 days after infestation.

[7] = system: Euschistus heros; assay: Euschistus heros (neotropical brown stink bug), sprayed soybean plants; conditions: 120 h, application rate 50 ppm, N2 nymphs on sprayed soybean plants, 5 days after infestation, read-out: control (at least one of mortality, growth inhibition)
Experimental: Two weeks old soybean plants were sprayed in a turn table spray chamber with the diluted spray solutions. After drying 2 soybean seeds were added and plants were infested with 10 N2 nymphs of the neotropical brown stink bug Euschistus heros in plastic test boxes. The samples were assessed for mortality and growth inhibition 5 days after infestation. Control of Euschistus heros by a test sample is noted when at least one of mortality and growth inhibition is better than the untreated sample.

Cc1cc(C2=CSC(c3cc(Cl)cc(Cl)c3)(C(F)(F)F)C2)ccc1C(=O)NC1CCC1 (stereo not drawn) [Compound A1, N-cyclobutyl-4-[2-(3,5-dichlorophenyl)-2-(trifluoromethyl)-3H-thiophen-4-yl]-2-methyl-benzamide]
≥ 80%: percent control (mortality, anti-feedant effect or growth inhibition) at 200 ppm [1] | mortality at 200 ppm [2] | mortality at 200 ppm [3] | mortality at 200 ppm [4] | mortality at 200 ppm [5] | mortality at 200 ppm [6] | mortality at 50 ppm [7]

Cc1cc(C2=CSC(c3cc(Cl)cc(Cl)c3)(C(F)(F)F)C2)ccc1C(=O)NCC(F)(F)F (stereo not drawn) [Compound A2, 4-[2-(3,5-dichlorophenyl)-2-(trifluoromethyl)-3H-thiophen-4-yl]-2-methyl-N-(2,2,2-trifluoroethyl)benzamide]
≥ 80%: percent control (mortality, anti-feedant effect or growth inhibition) at 200 ppm [1] | mortality at 200 ppm [2] | mortality at 200 ppm [3] | mortality at 200 ppm [4] | mortality at 200 ppm [5] | mortality at 200 ppm [6] | mortality at 50 ppm [7]

Cc1cc(C2=CSC(c3cc(Cl)cc(Cl)c3)(C(F)(F)F)C2)ccc1C(=O)NCC(=O)NCC(F)(F)F (stereo not drawn) [Compound A3, 4-[2-(3,5-dichlorophenyl)-2-(trifluoromethyl)-3H-thiophen-4-yl]-2-methyl-N-[2-oxo-2-(2,2,2-trifluoroethylamino)ethyl]benzamide]
≥ 80%: percent control (mortality, anti-feedant effect or growth inhibition) at 200 ppm [1] | mortality at 200 ppm [2] | mortality at 200 ppm [3] | mortality at 200 ppm [4] | mortality at 200 ppm [5] | mortality at 200 ppm [6] | mortality at 50 ppm [7]

Cc1cc(C2=CSC(c3cc(Cl)cc(Cl)c3)(C(F)(F)F)C2)ccc1C(=O)NC1CS(=O)(=O)C1 (stereo not drawn) [Compound A4, 4-[2-(3,5-dichlorophenyl)-2-(trifluoromethyl)-3H-thiophen-4-yl]-N-(1,1-dioxothietan-3-yl)-2-methyl-benzamide]
≥ 80%: percent control (mortality, anti-feedant effect or growth inhibition) at 200 ppm [1] | mortality at 200 ppm [2] | mortality at 200 ppm [3] | mortality at 200 ppm [4] | mortality at 200 ppm [5] | mortality at 200 ppm [6] | mortality at 50 ppm [7]

Cc1cc(C2=CSC(c3cc(Cl)cc(Cl)c3)(C(F)(F)F)C2)ccc1C(=O)NC1CSC1 (stereo not drawn) [Compound A5, 4-[2-(3,5-dichlorophenyl)-2-(trifluoromethyl)-3H-thiophen-4-yl]-2-methyl-N-(thietan-3-yl)benzamide]
≥ 80%: percent control (mortality, anti-feedant effect or growth inhibition) at 200 ppm [1] | mortality at 200 ppm [2] | mortality at 200 ppm [3] | mortality at 200 ppm [4] | mortality at 200 ppm [5] | mortality at 200 ppm [6] | mortality at 50 ppm [7]

Cc1cc(C2=CSC(c3cc(Cl)cc(Cl)c3)(C(F)(F)F)C2)ccc1C(N)=O (stereo not drawn) [Compound A6, 4-[2-(3,5-dichlorophenyl)-2-(trifluoromethyl)-3H-thiophen-4-yl]-2-methyl-benzamide]
≥ 80%: percent control (mortality, anti-feedant effect or growth inhibition) at 200 ppm [1] | mortality at 200 ppm [2] | mortality at 200 ppm [3] | mortality at 200 ppm [4]

Cc1cc(C2=CSC(c3cc(Cl)cc(Cl)c3)(C(F)(F)F)C2)ccc1C(=O)N[C@H]1C[S@@+]([O-])C1 (stereo partly drawn) [Compound A7, 4-[2-(3,5-dichlorophenyl)-2-(trifluoromethyl)-3H-thiophen-4-yl]-2-methyl-N-(1-oxidothietan-1-ium-3-yl)benzamide]
≥ 80%: percent control (mortality, anti-feedant effect or growth inhibition) at 200 ppm [1] | mortality at 200 ppm [2] | mortality at 200 ppm [3] | mortality at 200 ppm [4] | mortality at 200 ppm [5] | mortality at 200 ppm [6] | mortality at 50 ppm [7]

Cc1cc(C2=CSC(c3cc(Cl)cc(Cl)c3)(C(F)(F)F)C2)ccc1C(=O)NCc1ccccn1 (stereo not drawn) [Compound A8, 4-[2-(3,5-dichlorophenyl)-2-(trifluoromethyl)-3H-thiophen-4-yl]-2-methyl-N-(2-pyridylmethyl)benzamide]
≥ 80%: percent control (mortality, anti-feedant effect or growth inhibition) at 200 ppm [1] | mortality at 200 ppm [2] | mortality at 200 ppm [3] | mortality at 200 ppm [4] | mortality at 200 ppm [5] | mortality at 200 ppm [6]

CCN1OC[C@@H](NC(=O)c2ccc(C3=CSC(c4cc(Cl)cc(Cl)c4)(C(F)(F)F)C3)cc2C)C1=O (stereo partly drawn) [Compound A9, 4-[2-(3,5-dichlorophenyl)-2-(trifluoromethyl)-3H-thiophen-4-yl]-N-[(4R)-2-ethyl-3-oxo-isoxazolidin-4-yl]-2-methyl-benzamide]
≥ 80%: percent control (mortality, anti-feedant effect or growth inhibition) at 200 ppm [1] | mortality at 200 ppm [2] | mortality at 200 ppm [3] | mortality at 200 ppm [4] | mortality at 200 ppm [5] | mortality at 200 ppm [6] | mortality at 50 ppm [7]

CON/C=N/C(=O)c1ccc(C2=CSC(c3cc(Cl)cc(Cl)c3)(C(F)(F)F)C2)cc1C (stereo not drawn) [Compound A10, (NE)-4-[2-(3,5-dichlorophenyl)-2-(trifluoromethyl)-3H-thiophen-4-yl]-N-[(methoxyamino)methylene]-2-methyl-benzamide]
≥ 80%: percent control (mortality, anti-feedant effect or growth inhibition) at 200 ppm [1] | mortality at 200 ppm [2] | mortality at 200 ppm [3] | mortality at 200 ppm [4] | mortality at 200 ppm [6]

Cc1cc(C2=C[S+]([O-])C(c3cc(Cl)cc(Cl)c3)(C(F)(F)F)C2)ccc1C(=O)NCC(F)(F)F (stereo not drawn) [Compound B1, 4-[2-(3,5-dichlorophenyl)-1-oxido-2-(trifluoromethyl)-3H-thiophen-1-ium-4-yl]-2-methyl-N-(2,2,2-trifluoroethyl)benzamide]
≥ 80%: percent control (mortality, anti-feedant effect or growth inhibition) at 200 ppm [1] | mortality at 200 ppm [2] | mortality at 200 ppm [3]

Cc1cc(C2=CS(=O)(=O)C(c3cc(Cl)cc(Cl)c3)(C(F)(F)F)C2)ccc1C(=O)NCC(F)(F)F (stereo not drawn) [Compound B2, 4-[2-(3,5-dichlorophenyl)-1,1-dioxo-2-(trifluoromethyl)-3H-thiophen-4-yl]-2-methyl-N-(2,2,2-trifluoroethyl)benzamide]
≥ 80%: percent control (mortality, anti-feedant effect or growth inhibition) at 200 ppm [1] | mortality at 200 ppm [2] | mortality at 200 ppm [3] | mortality at 200 ppm [4]

N#Cc1cc(C2=CSC(c3cc(Cl)c(Cl)c(Cl)c3)(C(F)(F)F)C2)ccc1-n1cncn1 (stereo not drawn) [Compound C1, 2-(1,2,4-triazol-1-yl)-5-[2-(3,4,5-trichlorophenyl)-2-(trifluoromethyl)-3H-thiophen-4-yl]benzonitrile]
≥ 80%: percent control (mortality, anti-feedant effect or growth inhibition) at 200 ppm [1] | mortality at 200 ppm [2] | mortality at 200 ppm [3] | mortality at 200 ppm [4]

Source: US10517294B2, “Dihydrothiophene derivatives as insecticidal compounds” (priority 2012, dated 2019)
